{"source": "patent US20120130146A1", "about": "“CONTINUOUS ADMINISTRATION OF CILENGITIDE IN CANCER TREATMENTS” (Merck Patent GmbH, priority 2009, published 2012)", "key": {"[1]": {"test_system": "U251 human glioblastoma cells", "experiment": "Rat orthotopic glioblastoma model radiotherapy, Cilengitide scheduling experiments", "type": "in vivo", "conditions": "t-4 and t-8 h groups", "description": "NIH mu nude rats are anaesthetized, restrained, and injected intracerebrally 1 mm retro orbitally, 3 mm to the right of the bregma and at a depth of 2.5 mm with 5×10E5 U251 human glioblastoma cells suspended in 10 ul of culture medium, using a #2701 Hamilton syringe fitted with a 26 gauge needle, essentially as previously described (Engebraaten et al., 1999). After 14 days, cilengitide (4 mg/kg) is given as an intraperitoneal bolus in PBS, at various time (8 h, 4 h, 2 h, 1 h) prior to a single treatment with single, collimated, dorsal-ventral beam of 6 MV x-rays, so that 95-100% of the central axis dose of 25 Gy hit the tumor volume (Kim et al., 1999). Each of the 7 subsequent days the animals also received an identical i.p. bolus of cilengitide. The animals are maintained under ad libitum food and drink until they become moribund, or are sampled for tissue analysis (in the t-4 and t-8 h groups, where the animals are healthy past 230 days post tumor injection). A Kaplan-Meier survival curve is calculated and plotted (FIG. 1) from the raw data (Table 1). All animals in the RT monotherapy group died by 120 d."}, "[2]": {"test_system": "recurrent glioblastoma (GBM)", "experiment": "Phase IIa trial of cilengitide single agent therapy in patients with recurrent glioblastoma", "type": "in vivo, human", "description": "Background: The present phase IIa study was designed to evaluate the safety, toxicity, and clinical activity of the cyclic RGD pentapeptide cilengitide((=cyclo-(Arg-Gly-Asp-DPhe-NMe-Val)), an inhibitor of integrins avβ3 and avβ5, as a single agent at doses of 500 and 2000 mg in patients (pts) with recurrent glioblastoma (GBM).\nMethods: in this multicenter, open-label, randomized, uncontrolled study, pts with GBM and measurable disease that had relapsed after previous therapy with temozolomide and radiotherapy were randomized to receive cilengitide at doses of either 500 mg or 2000 mg i.v., 2×/week, until progression. Histopathology diagnosis and MRI imaging were subject to independent blinded review. The primary endpoint was Progression Free Survival (PFS) at 6 months (mths). Secondary endpoints included response, survival, time to disease progression, safety, tolerability and pharmacokinetics."}, "[3]": {"test_system": "newly diagnosed glioblastoma (GBM)", "experiment": "Phase I/IIa trial of cilengitide and temozolomide with concomitant radiotherapy in newly diagnosed glioblastoma", "type": "in vivo, human", "description": "Purpose: To evaluate safety, toxicity, and efficacy of the combination of the cyclic RGD pentapeptide Cilengitide (=cyclo-(Arg-Gly-Asp-DPhe-NMe-Val)), an inhibitor of integrins avβ3 and avβ5, in addition to standard temozolomide (TMZ) and radiotherapy (RT).\nPatients and methods: Fifty-two pts (PS 0-1: 92%, 2: 8%; median age 57 yrs) after biopsy (n=9/17%) or tumor resection (n=43/83%) were treated with standard TMZ/RT (Stupp et al. NEJM 2005). In addition Cilengitide (500 mg i.v., 2×/week) was started one week before TMZ/RT and given throughout for the duration of chemotherapy or until progression. Primary endpoint was progression free survival rate at 6 months (target: 65%). Patients were followed with MRI every 2 months. Histopathologic diagnosis and MRI imaging were independently reviewed, MGMT promotor methylation status was assessed in 45 (86.5%) pts."}, "[4]": {"test_system": "human umbilical vein endothelial cells (HUVECs)", "experiment": "Growth (Alamar Blue) assay on HUVEC, Example 5", "type": "cell-based", "conditions": "agent alone", "text": "The methods established and described in detail previously (Goodman and Hahn a; b) were used to measure the effect of combinations of integrin inhibitors and chemotherapeutics on carcinoma cell and human endothelial cell proliferation.\nPoints were run in duplicate or in triplicate. Reagent blanks, containing media plus Alamar Blue without cells, were run on each plate. Blank values were subtracted from test values and were routinely 5-10% of uninhibited control values.\n5.5 Methods of Evaluation and Statistics Chemotherapeutic agents and αv-integrin blockers were serially diluted alone or together (combination therapy). In some assays the chemotherapeutic agent was serially diluted alone or in combination with of alpha-v integrin blocker. Growth inhibition curves were plotted and a shift of the combination therapy curve to lower concentrations in relation to the single agent curves was interpreted as an additional effect, produced by combination versus monotherapy.\nThe αv-integrin competitive inhibitor Cilengitide (EMD 121974) was tested alone and in combination with vinorelbine in a serum growth stimulation assay using human carcinoma cells or human umbilical vein endothelial cells (HUVECs). In these assays cells are cultured in serum, or in an endothelial growth stimulation medium (Goodman & Hahn)."}, "various brain tumors": {"test_system": "various brain tumors", "conditions": "cited from earlier work"}, "[5]": {"conditions": "Cilengitide 500 mg i.v. 2x/week in addition to standard TMZ/RT"}}, "note": "“Also recorded” adds a separate entry of the source.", "data": [{"compound": "CC(C)[C@H]1C(=O)N[C@@H](CCCN=C(N)N)C(=O)NCC(=O)N[C@@H](CC(=O)O)C(=O)N[C@H](Cc2ccccc2)C(=O)N1C", "note": "[Cilengitide, cyclo-(Arg-Gly-Asp-DPhe-NMeVal)]", "values": [{"measurement": "animals healthy, days post tumor injection", "setting": "[1]", "value": "> 230", "unit": "days"}, {"measurement": "median Overall Survival (mOS)", "setting": "[2]; 500 mg arm", "value": 6.5, "unit": "mths"}, {"measurement": "pts who received 12 or more cycles of therapy", "setting": "[2]; 1 cycle = 4 weeks, both dose arms", "value": 12.3, "unit": "%"}, {"measurement": "median Overall Survival (mOS)", "setting": "[2]; 2000 mg arm", "value": 9.9, "unit": "mths"}, {"measurement": "PFS rate at 6 mths", "setting": "[2]; 500 or 2000 mg i.v. 2x/week, all 81 pts", "value": 16.1, "unit": "%"}, {"measurement": "Treatment related NCI CTC grade 3 adverse events", "setting": "[2]; at 500 mg, in 1 patient each", "value": "elevated liver enzymes; also recorded: arthralgia/myalgia"}, {"measurement": "Treatment related NCI CTC grade 3 adverse events", "setting": "[2]; at 2000 mg, in 1 patient", "value": "weight increase/edema"}, {"measurement": "pts still progression-free and on treatment", "setting": "[2]; at the time the abstract was issued", "value": 7.4, "unit": "%"}, {"measurement": "grade 4 therapy related AEs", "setting": "[2]; both dose arms", "value": "No grade 4 therapy related AEs"}, {"measurement": "single agent activity in recurrent glioblastoma", "setting": "[2]; human, in vivo", "value": "advantagous single agent activity"}, {"measurement": "cerebral hemorrhage", "setting": "[2]; possibly related either to the drug or to the disease", "value": "One CTC grade 2 cerebral hemorrhage"}, {"measurement": "tolerability", "setting": "[2]; single agent therapy at two dose levels", "value": "tolerated well"}, {"measurement": "haematological grade 3 and 4 toxicity: lymphopenia", "setting": "[3]; [5]", "value": 53.8, "unit": "%"}, {"measurement": "haematological grade 3 and 4 toxicity: neutropenia", "setting": "[3]; [5]", "value": 9.6, "unit": "%"}, {"measurement": "haematological grade 3 and 4 toxicity: thrombocytopenia", "setting": "[3]; [5]", "value": 13.4, "unit": "%"}, {"measurement": "patients with treatment related non-hematologic grade 3 toxicities", "setting": "[3]; [5]", "value": 5.7, "unit": "%"}, {"measurement": "patients progression free at 6 months (PFS-6)", "setting": "[3]; all 52 pts, Cilengitide in addition to TMZ/RT", "value": 65.4, "unit": "%"}, {"measurement": "tolerability", "setting": "[3]; combination of Cilengitide and TMZ/RT", "value": "well tolerated"}, {"measurement": "PFS-6 rate", "setting": "[3]; subgroup with methylated MGMT promoter (23/52), Cilengitide in addition to TMZ/RT", "value": 91, "unit": "%"}, {"measurement": "PFS-6 rate", "setting": "[3]; subgroup with unmethylated MGMT promotor (22/52), Cilengitide in addition to TMZ/RT", "value": 40.9, "unit": "%"}, {"measurement": "IC50", "setting": "[4]", "value": 700, "unit": "nM"}, {"measurement": "MTD in humans", "setting": "various brain tumors; human, in vivo", "value": "no known MTD"}, {"measurement": "tolerability", "setting": "various brain tumors; human, in vivo", "value": "very well tolerated"}, {"measurement": "response in GBM patients", "setting": "various brain tumors; some of the GBM patients", "value": "indication of response"}]}]}
